# Measured values: the supplement of paper PMC10307832
# What was measured:
# Assay in all cases: relative viability (nuclei count vs DMSO), 5 days (fraction); higher = more cells survive
# [1] = compound: COc1cc2nccc(Oc3ccc(NC(=O)C4(C(=O)Nc5ccc(F)cc5)CC4)cc3)c2cc1OC [Cabozantinib] + CC(C)C[C@H](NC(=O)[C@H](Cc1ccccc1)NC(=O)c1cnccn1)B(O)O [Bortezomib] (partner 0.002 µM)
# Summary of the method: (§1)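 Relative viability was taken as the ratio of nuclei in treated wells to nuclei in vehicle wells. Lung cancer cell lines in 1536-well plates received compounds by pin tool one day after seeding, either one drug alone or a fixed anchor-drug dose plus five library-drug doses (not always all listed) in √10 steps. Nuclei were counted on 4× images after 5 days of treatment, and values are medians of duplicate plates.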
# Zosuquidar + Foretinib = compound: O[C@@H](COc1cccc2ncccc12)CN1CCN([C@@H]2c3ccccc3[C@@H]3[C@H](c4ccccc42)C3(F)F)CC1 [Zosuquidar] + COc1cc2c(Oc3ccc(NC(=O)C4(C(=O)Nc5ccc(F)cc5)CC4)cc3F)ccnc2cc1OCCCN1CCOCC1 [Foretinib] (partner 0.25 µM)
# Summary of the method: as §1
# Zosuquidar + Lapatinib = compound: O[C@@H](COc1cccc2ncccc12)CN1CCN([C@@H]2c3ccccc3[C@@H]3[C@H](c4ccccc42)C3(F)F)CC1 [Zosuquidar] + CS(=O)(=O)CCNCc1ccc(-c2ccc3ncnc(Nc4ccc(OCc5cccc(F)c5)c(Cl)c4)c3c2)o1 [Lapatinib] (partner 2 µM)
# Summary of the method: as §1
# Zosuquidar + Crizotinib = compound: O[C@@H](COc1cccc2ncccc12)CN1CCN([C@@H]2c3ccccc3[C@@H]3[C@H](c4ccccc42)C3(F)F)CC1 [Zosuquidar] + C[C@@H](Oc1cc(-c2cnn(C3CCNCC3)c2)cnc1N)c1c(Cl)ccc(F)c1Cl [Crizotinib] (partner 1 µM)
# Summary of the method: as §1
Cell Line,relative viability ([1]; first compound 0.02 µM),relative viability ([1]; first compound 0.06325 µM),relative viability ([1]; first compound 0.2 µM),relative viability ([1]; first compound 0.6325 µM),relative viability ([1]; first compound 2 µM),relative viability (Zosuquidar + Foretinib; first compound 0.01 µM),relative viability (Zosuquidar + Foretinib; first compound 0.03162 µM),relative viability (Zosuquidar + Foretinib; first compound 0.3162 µM),relative viability (Zosuquidar + Foretinib; first compound 1 µM),relative viability (Zosuquidar + Lapatinib; first compound 0.01 µM),relative viability (Zosuquidar + Lapatinib; first compound 0.03162 µM),relative viability (Zosuquidar + Lapatinib; first compound 0.1 µM),relative viability (Zosuquidar + Lapatinib; first compound 0.3162 µM),relative viability (Zosuquidar + Lapatinib; first compound 1 µM),relative viability (Zosuquidar + Crizotinib; first compound 0.01 µM),relative viability (Zosuquidar + Crizotinib; first compound 0.03162 µM),relative viability (Zosuquidar + Crizotinib; first compound 0.1 µM),relative viability (Zosuquidar + Crizotinib; first compound 0.3162 µM),relative viability (Zosuquidar + Crizotinib; first compound 1 µM),relative viability (Zosuquidar + Foretinib; first compound 0.1 µM)
NCI-H520,0.878,0.73,0.703,0.483,0.515,0.882,0.849,0.619,0.685,0.878,0.827,0.569,0.855,0.982,0.727,0.68,0.737,0.834,0.828,
PC-14,0.952,0.89,,0.829,0.8,0.99,0.983,0.997,0.952,0.316,0.284,0.259,0.416,0.288,0.837,1.02,0.801,0.938,0.759,0.952
NCI-H2347,0.875,1.34,0.944,0.963,0.666,1.01,1.06,0.978,0.869,0.888,0.931,0.908,1.06,0.925,0.786,0.75,0.575,0.794,0.717,0.556
NCI-H650,0.691,0.998,0.861,0.737,0.627,1.03,0.984,1.15,0.939,0.845,0.879,,1.49,0.881,0.641,0.762,,0.731,0.721,0.908
NCI-H596,0.966,1.07,1.02,0.802,0.996,0.805,,0.939,0.868,1.11,1.07,1.08,1.13,1.13,1.03,0.898,1.01,1.06,1.02,0.788
